Organism: Rattus norvegicus
Test: Open TG-GATES - Regimen: Single
Format: toxicity, organism-based, Sprague-Dawley
Parameters: regimen Single, gender Male, age 6 weeks
Settings: in vivo, po, 100 mg/kg, route gavage, dose level Low; for APTT / Bas / Eos / Fbg / Hb / Ht / Lym / MCH / MCHC / MCV / Mono / Neu / PT / Plat / RBC / Ret / WBC: tissue Blood; for KIDNEY_L / KIDNEY_R / KIDNEY_TOTAL: tissue Kidney; for LIVER: tissue Liver; for A/G / ALP / ALT / AST / BUN / CRE / Ca / Cl / DBIL / GLC / IP / LDH / Na / PL / RALB / TBIL / TC / TG / TP / gamma-GTP: tissue Plasma

NC(N)=Nc1nc(CSCCC(N)=NS(N)(=O)=O)cs1 [FAMOTIDINE]
TERMINAL_BW (3 h): 213.7 g | APTT (3 h): 19.6 s | Bas (3 h): 0% | Eos (3 h): 0.6% | Fbg (3 h): 217.4 mg/dL | Hb (3 h): 13.5 g/dL | Ht (3 h): 38.2% | Lym (3 h): 71.2% | MCH (3 h): 22.6 pg | MCHC (3 h): 35.3% | MCV (3 h): 64.1 fL | Mono (3 h): 2.4% | Neu (3 h): 24% | PT (3 h): 12.3 s | Plat (3 h): 112.1 x10_4/uL | RBC (3 h): 596.2 x10_4/ul | Ret (3 h): 7.2% | WBC (3 h): 80 x10_2/uL | KIDNEY_L (3 h): 1 g | KIDNEY_R (3 h): 1 g | KIDNEY_TOTAL (3 h): 1.9 g | LIVER (3 h): 10.3 g | A/G (3 h): 1.7 | ALP (3 h): 1057.6 IU/L | ALT (3 h): 38 IU/L | AST (3 h): 64.8 IU/L | BUN (3 h): 9.4 mg/dL | CRE (3 h): 0.4 mg/dL | Ca (3 h): 10.5 mg/dL | Cl (3 h): 104.2 meq/L | DBIL (3 h): 0.076 mg/dL | GLC (3 h): 196.2 mg/dL | IP (3 h): 9.2 mg/dL | LDH (3 h): 186.2 IU/L | Na (3 h): 141 meq/L | PL (3 h): 144.6 mg/dL | RALB (3 h): 3.4 g/dL | TBIL (3 h): 0.1 mg/dL | TC (3 h): 79 mg/dL | TG (3 h): 56.6 mg/dL | TP (3 h): 5.5 g/dL | gamma-GTP (3 h): 1 IU/L | TERMINAL_BW (6 h): 212.2 g | APTT (6 h): 18.5 s | Bas (6 h): 0% | Eos (6 h): 0.8% | Fbg (6 h): 222.2 mg/dL | Hb (6 h): 13.4 g/dL | Ht (6 h): 37.5% | Lym (6 h): 71.4% | MCH (6 h): 22.2 pg | MCHC (6 h): 35.7% | MCV (6 h): 62.3 fL | Mono (6 h): 2.6% | Neu (6 h): 22.8% | PT (6 h): 12.4 s | Plat (6 h): 120.7 x10_4/uL | RBC (6 h): 602.6 x10_4/ul | Ret (6 h): 6.8% | WBC (6 h): 98.6 x10_2/uL | KIDNEY_L (6 h): 1 g | KIDNEY_R (6 h): 0.9 g | KIDNEY_TOTAL (6 h): 1.9 g | LIVER (6 h): 9.4 g | A/G (6 h): 1.5 | ALP (6 h): 808.4 IU/L | ALT (6 h): 34.2 IU/L | AST (6 h): 68 IU/L | BUN (6 h): 9.4 mg/dL | CRE (6 h): 0.4 mg/dL | Ca (6 h): 10.7 mg/dL | Cl (6 h): 103.2 meq/L | DBIL (6 h): 0.068 mg/dL | GLC (6 h): 189.4 mg/dL | IP (6 h): 9 mg/dL | LDH (6 h): 202 IU/L | Na (6 h): 140.4 meq/L | PL (6 h): 141.2 mg/dL | RALB (6 h): 3.2 g/dL | TBIL (6 h): 0.1 mg/dL | TC (6 h): 82 mg/dL | TG (6 h): 60 mg/dL | TP (6 h): 5.4 g/dL | gamma-GTP (6 h): 1.4 IU/L | TERMINAL_BW (9 h): 209.4 g | APTT (9 h): 18.3 s | Bas (9 h): 0% | Eos (9 h): 0.8% | Fbg (9 h): 232.2 mg/dL | Hb (9 h): 13.4 g/dL | Ht (9 h): 37.1% | Lym (9 h): 74.2% | MCH (9 h): 22 pg | MCHC (9 h): 36% | MCV (9 h): 61.2 fL | Mono (9 h): 2.2% | Neu (9 h): 19.2% | PT (9 h): 12.1 s | Plat (9 h): 116.7 x10_4/uL | RBC (9 h): 606.6 x10_4/ul | Ret (9 h): 7% | WBC (9 h): 87.3 x10_2/uL | KIDNEY_L (9 h): 0.9 g | KIDNEY_R (9 h): 1 g | KIDNEY_TOTAL (9 h): 1.9 g | LIVER (9 h): 9 g | A/G (9 h): 1.6 | ALP (9 h): 851.2 IU/L | ALT (9 h): 31.2 IU/L | AST (9 h): 61.2 IU/L | BUN (9 h): 10.2 mg/dL | CRE (9 h): 0.4 mg/dL | Ca (9 h): 10.5 mg/dL | Cl (9 h): 103.6 meq/L | DBIL (9 h): 0.064 mg/dL | GLC (9 h): 200.8 mg/dL | IP (9 h): 8.8 mg/dL | LDH (9 h): 135.4 IU/L | Na (9 h): 141 meq/L | PL (9 h): 140.8 mg/dL | RALB (9 h): 3.4 g/dL | TBIL (9 h): 0.1 mg/dL | TC (9 h): 80.6 mg/dL | TG (9 h): 62.4 mg/dL | TP (9 h): 5.5 g/dL | gamma-GTP (9 h): 0.8 IU/L | TERMINAL_BW (24 h): 225.3 g | APTT (24 h): 19.8 s | Bas (24 h): 0% | Eos (24 h): 1% | Fbg (24 h): 229.6 mg/dL | Hb (24 h): 13.3 g/dL | Ht (24 h): 37.2% | Lym (24 h): 78.2% | MCH (24 h): 22.3 pg | MCHC (24 h): 35.8% | MCV (24 h): 62.2 fL | Mono (24 h): 2.2% | Neu (24 h): 16.2% | PT (24 h): 12 s | Plat (24 h): 121.8 x10_4/uL | RBC (24 h): 599.4 x10_4/ul | Ret (24 h): 6.1% | WBC (24 h): 86.8 x10_2/uL | KIDNEY_L (24 h): 1 g | KIDNEY_R (24 h): 1 g | KIDNEY_TOTAL (24 h): 2 g | LIVER (24 h): 10.8 g | A/G (24 h): 1.4 | ALP (24 h): 990 IU/L | ALT (24 h): 40.6 IU/L | AST (24 h): 68.2 IU/L | BUN (24 h): 14.2 mg/dL | CRE (24 h): 0.4 mg/dL | Ca (24 h): 10.6 mg/dL | Cl (24 h): 104.2 meq/L | DBIL (24 h): 0.076 mg/dL | GLC (24 h): 199.4 mg/dL | IP (24 h): 7.7 mg/dL | LDH (24 h): 198.4 IU/L | Na (24 h): 140.6 meq/L | PL (24 h): 145.8 mg/dL | RALB (24 h): 3.3 g/dL | TBIL (24 h): 0.1 mg/dL | TC (24 h): 74.2 mg/dL | TG (24 h): 82.6 mg/dL | TP (24 h): 5.6 g/dL | gamma-GTP (24 h): 0.6 IU/L

Reference: ChEMBL document CHEMBL3885861, “Open TG-GATES”
